Experiments:
hERG channel = target: T1, hERG channel (Homo sapiens, UniProt Q12809); assay: hERG potassium channel current inhibition, whole-cell patch clamp; format: cell-based; conditions: hERG-expressing HEK 293 cells, whole-cell recording, 25 °C
T1 construct: host or cells: HEK 293
Description: Inhibition of human ether-a-go-go-related gene (hERG) potassium channel current was carried out following a standard protocol by Pharmaron, Inc. hERG stably expressed HEK 293 cell line (Cat# K1236) was purchased from Invitrogen (Thermo Fisher Scientific, USA). The cells are cultured in 90% DMEM, 10% dialyzed FBS, 0.1 mM NEAA, 25 mM HEPES, 100 U/mL Penicillin-Streptomycin, 5 µg/mL Blasticidin, and 400 µg/mL Geneticin. Cells are split using TrypLE Express about three times a week and maintained between ~40% and ~80% confluence. Before the assay, the cells were plated onto the coverslips at 5 × 10^5 cells/6 cm cell culture dish and induced with doxycycline at 1 µg/mL for 48 h. Test compound was initially prepared in DMSO with final concentration of 30 mM as stock solution. Then stock solution of test compound was serial-diluted by ratio of 1:3 with DMSO to prepare additional four intermedial solutions including 10, 3.33, 1.11, 0.37 mM, respectively. […] 5 doses were challenged to the patched cells for IC50 determination.
The voltage-gated hERG potassium channel current was recorded at room temperature (25 °C) from randomly selected transfected cells using whole-cell recording technique with a Multiclamp 700B amplifier (Molecular Devices, US) and an EPC10 microamplifier (HEKA, USA). Extracellular solution (in mM): 132 NaCl, 4 KCl, 3 CaCl2, 0.5 MgCl2, 11.1 glucose, and 10 HEPES (pH adjusted to 7.35 with NaOH). Intracellular solution (in mM): 70 KF, 60 KCl, 15 NaCl, 5 EGTA, and 5 HEPES (pH adjusted to 7.35 with KOH).
The holding potential was set to −90 mV for 1 s; recording current at 50 kHz and filter at 10 kHz. Leaking current was tested at −80 mV for 500 ms. […] The current was recorded for 120 s to assess the current stability. […] After allowing the current to stabilize for 3 min, compound was applied. hERG current in the presence of test compound were recorded for approximately 5 min to reach steady state and then five sweeps were captured. […] Percent current inhibition was calculated using the following equation. […]

M. leprae = M. leprae viability in axenic medium by radiorespirometry; format: cell-based, Mycobacterium leprae
M. leprae 3β-HSD [1] = assay: NAD+ reduction by M. leprae whole cell lysate; format: biochemical, Mycobacterium leprae; conditions: M. leprae WCL with 200 µM cholesterol, vehicle DMSO mean 1.119
Description: M. leprae whole cell lysate (WCL) was obtained by bead-beating gamma-irradiated M. leprae Strain NHDP (BEI Resources, NR-19326) with 0.1 mm silica beads and FastPrep bead-beater (MP Biomedicals, USA). Homogenization was carried out in three cycles of agitation at 6.5 m/s for 45 s, with the sample being rested on ice for at least 2 min between cycles. The homogenates were centrifuged at 14,000 × g for 5 min to separate the spheres and WCL. The supernatant was recovered, and protein concentration determined using Pierce BCA protein assay (Thermo Fisher Scientific). NAD^+ (200 µM, MilliporeSigma, USA) reduction was measured as previously described using 50 µg (protein) of WCL protein, with the addition of 200 µM of cholesterol (MilliporeSigma) and in the presence or absence of compound 2 (40 and 100 µM) or compound 5 (100 µM) ([10]).

M. leprae 3β-HSD [2] = assay: cholestenone production by M. leprae in axenic medium (TLC); format: cell-based; conditions: Mycobacterium leprae, TLC densitometry, σ printed in brackets
HepG2 cells = conditions: cited from earlier work

T1 sequence (Q12809 whole entry): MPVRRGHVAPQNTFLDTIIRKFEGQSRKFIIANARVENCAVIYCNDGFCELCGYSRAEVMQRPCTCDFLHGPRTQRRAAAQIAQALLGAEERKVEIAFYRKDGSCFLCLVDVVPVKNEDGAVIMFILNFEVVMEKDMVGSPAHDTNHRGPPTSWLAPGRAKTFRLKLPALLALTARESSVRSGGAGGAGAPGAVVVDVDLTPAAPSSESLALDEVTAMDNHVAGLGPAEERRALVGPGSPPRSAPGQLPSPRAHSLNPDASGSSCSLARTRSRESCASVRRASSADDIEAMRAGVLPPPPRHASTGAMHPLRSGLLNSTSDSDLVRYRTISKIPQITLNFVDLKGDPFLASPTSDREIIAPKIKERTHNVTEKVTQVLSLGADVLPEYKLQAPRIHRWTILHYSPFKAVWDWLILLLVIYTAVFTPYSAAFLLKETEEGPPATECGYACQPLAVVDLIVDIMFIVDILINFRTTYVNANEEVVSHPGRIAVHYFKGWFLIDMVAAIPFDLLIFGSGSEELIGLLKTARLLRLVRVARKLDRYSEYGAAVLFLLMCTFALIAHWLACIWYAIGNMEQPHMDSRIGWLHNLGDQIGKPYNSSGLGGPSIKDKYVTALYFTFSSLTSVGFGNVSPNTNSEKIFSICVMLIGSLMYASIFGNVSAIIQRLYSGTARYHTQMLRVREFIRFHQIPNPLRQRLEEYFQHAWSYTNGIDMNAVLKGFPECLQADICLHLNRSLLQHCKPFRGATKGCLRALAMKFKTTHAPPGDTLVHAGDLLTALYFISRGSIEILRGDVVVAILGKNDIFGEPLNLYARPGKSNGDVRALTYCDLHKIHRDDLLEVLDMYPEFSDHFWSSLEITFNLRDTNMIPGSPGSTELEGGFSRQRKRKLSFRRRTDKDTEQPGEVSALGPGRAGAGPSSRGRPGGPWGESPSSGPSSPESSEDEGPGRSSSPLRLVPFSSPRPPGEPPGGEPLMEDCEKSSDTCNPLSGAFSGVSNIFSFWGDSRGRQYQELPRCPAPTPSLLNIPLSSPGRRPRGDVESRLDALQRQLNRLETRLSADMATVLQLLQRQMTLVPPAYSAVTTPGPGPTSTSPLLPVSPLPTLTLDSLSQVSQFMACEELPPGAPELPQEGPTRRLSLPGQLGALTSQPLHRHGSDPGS

CC(C)(C)c1ccc(C(C)(C)C)c(NC(=O)C2CCC3C4CNC5=CC(=O)CC[C@]5(C)C4CC[C@]23C)c1 (stereo partly shown) [Compound 1]
IC50 (hERG channel): 0.95 µM

CCCN1CC2C3CCC(C(=O)Nc4cc(C(C)(C)C)ccc4C(C)(C)C)[C@@]3(C)CCC2[C@@]2(C)CCC(=O)C=C12 (stereo partly shown) [Compound 2]
effect on M. leprae viability (radiorespirometry) (M. leprae; 40 µM): did not significantly affect M. leprae viability
effect on M. leprae viability (radiorespirometry) (M. leprae; 100 µM): drastically reduced M. leprae viability
rate of NAD+ reduction, mean value (ratio absorbance T/absorbance T0) (M. leprae 3β-HSD [1]; 40 µM): 0.9986
rate of NAD+ reduction, mean value (ratio absorbance T/absorbance T0) (M. leprae 3β-HSD [1]; 100 µM): 1.038
inhibition at 40 µM (M. leprae 3β-HSD [2]; 40 μM): ~38%
IC50 (HepG2 cells): 21 µM
IC50 (hERG channel): 0.74 µM

C[C@]12CCC3C(CNC4=CC(=O)CC[C@@]43C)C1CCC2C(=O)NC(c1ccc(F)cc1)c1ccc(F)cc1 (stereo partly shown) [Compound 5]
effect on M. leprae viability (radiorespirometry) (M. leprae; 100 µM): without significantly affecting bacterial viability
rate of NAD+ reduction, mean value (ratio absorbance T/absorbance T0) (M. leprae 3β-HSD [1]; 100 µM): 0.9070
inhibition at 100 µM (M. leprae 3β-HSD [2]; 100 μM): ~25.1%
IC50 (HepG2 cells): 31 µM
IC50 (hERG channel): 3 µM
